Test [1] has as its target T1, ASK1/MAP3K5 (Homo sapiens, UniProt Q99683).
T1 sequence (Q99683 1-1374): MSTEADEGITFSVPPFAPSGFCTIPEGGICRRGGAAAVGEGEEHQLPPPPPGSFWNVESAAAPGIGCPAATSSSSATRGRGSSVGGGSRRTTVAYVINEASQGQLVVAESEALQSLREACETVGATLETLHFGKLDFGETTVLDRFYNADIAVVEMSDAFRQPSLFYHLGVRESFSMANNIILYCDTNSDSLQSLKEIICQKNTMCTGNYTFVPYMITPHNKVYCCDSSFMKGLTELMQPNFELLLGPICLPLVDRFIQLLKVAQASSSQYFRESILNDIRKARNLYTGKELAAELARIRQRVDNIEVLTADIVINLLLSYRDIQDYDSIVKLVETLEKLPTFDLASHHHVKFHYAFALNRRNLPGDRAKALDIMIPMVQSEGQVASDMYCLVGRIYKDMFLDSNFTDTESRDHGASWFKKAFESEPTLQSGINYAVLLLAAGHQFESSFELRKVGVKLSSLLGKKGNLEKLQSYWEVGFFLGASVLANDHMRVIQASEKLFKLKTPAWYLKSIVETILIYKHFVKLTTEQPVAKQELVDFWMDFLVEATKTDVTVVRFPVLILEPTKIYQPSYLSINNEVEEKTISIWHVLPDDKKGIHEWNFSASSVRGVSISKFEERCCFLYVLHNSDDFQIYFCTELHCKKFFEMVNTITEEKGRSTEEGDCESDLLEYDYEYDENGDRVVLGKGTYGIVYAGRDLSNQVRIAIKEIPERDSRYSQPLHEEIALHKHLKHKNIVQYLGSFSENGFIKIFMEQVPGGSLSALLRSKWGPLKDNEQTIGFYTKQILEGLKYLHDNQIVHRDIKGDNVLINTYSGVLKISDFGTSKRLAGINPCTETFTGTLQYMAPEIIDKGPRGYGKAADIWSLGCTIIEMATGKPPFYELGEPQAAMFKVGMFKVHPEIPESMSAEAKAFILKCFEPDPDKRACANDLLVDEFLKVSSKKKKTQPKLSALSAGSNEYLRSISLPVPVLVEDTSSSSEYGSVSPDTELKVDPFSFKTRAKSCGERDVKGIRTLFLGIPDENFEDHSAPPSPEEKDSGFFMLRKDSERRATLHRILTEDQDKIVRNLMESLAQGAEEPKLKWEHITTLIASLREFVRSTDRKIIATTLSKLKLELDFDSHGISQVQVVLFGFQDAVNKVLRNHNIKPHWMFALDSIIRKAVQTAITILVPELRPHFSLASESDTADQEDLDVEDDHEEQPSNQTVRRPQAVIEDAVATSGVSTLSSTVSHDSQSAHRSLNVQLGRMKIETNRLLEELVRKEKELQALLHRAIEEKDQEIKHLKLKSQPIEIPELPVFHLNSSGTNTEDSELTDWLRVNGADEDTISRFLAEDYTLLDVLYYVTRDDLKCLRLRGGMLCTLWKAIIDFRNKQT
The experiment in a line: ASK1/MAP3K5 kinase assay by Reaction Biology Corp. (headed ASK1 TR-FRET Assay). Type of test: biochemical. The conditions noted are these: 20 μM myelin basic protein, 10 μM ATP. The method, then: Example 111: Brief Description of ASK1 TR-FRET Assay The protein kinase inhibitory activity of the compounds described herein were tested using the ASK1/MAP3K5 assay by Reaction Biology Corp. (Malvern, PA). The assay procedure follows (and is also available on the Reaction Biology Corp. website). Base Reaction Buffer: 20 mM Hepes (pH 7.5), 10 mM MgCl2, 1 mM EGTA, 0.02% Brij35, 0.02 mg/mL BSA, 0.1 mM Na3VO4, 2 mM DTT, 1% DMSO; Substrate: 20 μM of myelin basic protein (MBP) and 10 μM ATP; Protein kinase: ASK1/MAP3K5. Reaction Procedure: • 1. Prepare indicated substrate in freshly prepared Base Reaction Buffer. • 2. Deliver any required cofactors to the substrate solution. • 3. Deliver indicated kinase into the substrate solution and gently mix. • 4. Deliver compounds in DMSO into the kinase reaction mixture by Acoustic; technology (Echo550; nanoliter range), incubate for 20 minutes at room temperature. • 5. Deliver ^33P-ATP (specific activity 10 μCi/μL) into the reaction mixture to initiate the reaction. • 6. Incubate kinase reaction for 2 hours at room temperature. • 7. Reactions are spotted onto P81 ion exchange paper. • 8. Detect kinase activity by filter-binding method.

In test [2] the target is T2, ASK1 T838 auto phosphorylation (Homo sapiens, UniProt Q99683).
T2 sequence (Q99683 1-1374): T1 sequence (Q99683 1-1374)
As to the kind of experiment: ASK1 (AUTO PHOS T838) assay, MSD format, in HEK-293T cells transfected with ASK1-V5. It is filed as cell-based. The conditions noted are these: ASK1 T838 auto phosphorylation in HEK-293T cells, 1 hr compound incubation; class symbols. How it is done: Example 112: Brief Description of ASK1(AUTO PHOS T838) Assay ASK1 T838 auto phosphorylation was measured in HEK-293T cells using MSD assay format. HEK 293T cells were seeded in 15 cm plates at a density of 18 million cells and 20 mL DMEM with 10% FBS, Pen/Strep media. The plates were incubated at 37° C. overnight. Media on plates was changed to OPTI-MEM, serum free media and cells were transfected with 9 μg of ASK1-V5 tagged full length plasmid using Lipofectamine 2000 (Invitrogen) and the plates were incubated at 37° C. overnight. Cells were trypsinized, counted on Nexcellometer and plated into 96 well tissue culture plates with 100,000 cells/well and 200 μL media. Cells were incubated for 4 hr at 37° C. then ASK1 compounds were added using a HP 300e. Compounds were tested at 20 μM with 3 fold, 10 point dilution points then incubated for 1 hr at 37° C. A lysis buffer (Cell Signaling) was prepared with protease and phosphatase inhibitor and maintained at 4° C. until use. Media from cells was discarded and 120 μL of cold lysis buffer was added to the cells, the plate was shaken 4° C. for 1 hr. Lysate was mixed using Apricot liquid handler; aspirating up and down 16 times at high speed using 50 μL volume. […] Plates were then incubated on a plate shaker overnight at 4° C. Plates were washed 3× with MSD wash buffer and 50 μL of rabbit anti-pASK1 T838 antibody was added to the wells and incubated for 2 hr at room temperature on a plate shaker. Plates were then washed and 50 μL of goat anti-rabbit sulfa-tag (1:500 dilution) was added to wells, and incubated for 1 hr at room temperature on a plate shaker. […] Plates were immediately read on a MSD Instrument Reader where chemoluminescence signal was measured. Data was analyzed using Graph Pad or Genedata, the data was normalized and plotted, % activity versus log of compound concentration. The IC50 values were obtained from a 4 parameter fit. The compounds described herein were tested for in the above cell-based assay.

As usually defined, the IC50 is the concentration at which inhibition is half-maximal. Regarding `Cn1cc(C(=O)Nc2cccc(-c3nncn3C3(C(F)(F)F)CC3)n2)c(C(F)F)n1` [Example 24, 3-(Difluoromethyl)-1-methyl-N-(6-(4-(1-(trifluoromethyl)cyclopropyl)-4H-1,2,4-triazol-3-yl)pyridin-2-yl)-1H-pyrazole-4-carboxamide], the values for the IC50 in test [1] (class symbols) and in test [2] were at most 0.1 µM and at most 1 µM, respectively.

Turning to `COc1nn(C)cc1C(=O)Nc1cccc(-c2nncn2C2(C(F)(F)F)CC2)n1` [Example 25, 3-Methoxy-1-methyl-N-(6-(4-(1-(trifluoromethyl)cyclopropyl)-4H-1,2,4-triazol-3-yl)pyridin-2-yl)-1H-pyrazole-4-carboxamide], the IC50 in test [1] (class symbols) was at most 0.1 µM; in test [2], at most 1 µM.

Take `COc1nn(C)cc1C(=O)Nc1cccc(-c2nncn2C(C)C(F)F)n1` (centres unmarked) [Example 26, N-(6-(4-(1,1-Difluoropropan-2-yl)-4H-1,2,4-triazol-3-yl)pyridin-2-yl)-3-methoxy-1-methyl-1H-pyrazole-4-carboxamide]: the IC50 in test [1] (class symbols) is at most 0.1 µM; in test [2], at most 1 µM.

As to `COc1nn(C)cc1C(=O)Nc1cccc(-c2nncn2[C@@H](C)C(C)C)n1` [Example 29, (S)-3-Methoxy-1-methyl-N-(6-(4-(3-methylbutan-2-yl)-4H-1,2,4-triazol-3-yl)pyridin-2-yl)-1H-pyrazole-4-carboxamide], the IC50 in test [1] (class symbols) was at most 0.1 µM; in test [2], at most 1 µM.

Consider `COc1nn(C)cc1C(=O)Nc1cccc(-c2nncn2C2CCC2(F)F)n1` (centres unmarked) [Example 30, N-(6-(4-(2,2-Difluorocyclobutyl)-4H-1,2,4-triazol-3-yl)pyridin-2-yl)-3-methoxy-1-methyl-1H-pyrazole-4-carboxamide], for which the IC50 in test [1] (class symbols) was at most 0.1 µM; in test [2] it was at most 1 µM.

`COc1nn(C)cc1C(=O)Nc1cccc(-c2nncn2C2CCN(C(=O)OC(C)(C)C)CC2)n1` [Example 38, tert-Butyl 4-(3-(6-(3-methoxy-1-methyl-1H-pyrazole-4-carboxamido)pyridin-2-yl)-4H-1,2,4-triazol-4-yl)piperidine-1-carboxylate]: the concentration for half-maximal inhibition (IC50) in test [1] (class symbols) is 0.1 to 1 µM; in test [2], at most 1 µM.

As to `COc1nn(C)cc1C(=O)Nc1cccc(-c2nncn2[C@@H]2CCCNC2)n1` [Example 39, (R)-3-Methoxy-1-methyl-N-(6-(4-(piperidin-3-yl)-4H-1,2,4-triazol-3-yl)pyridin-2-yl)-1H-pyrazole-4-carboxamide], the concentration for half-maximal inhibition (IC50) in test [1] (class symbols) and in test [2] was 1 to 10 µM each time.

Regarding `COc1nn(CC(C)C)cc1C(=O)Nc1cccc(-c2nncn2C(C)C)n1` [Example 42, 1-Isobutyl-N-(6-(4-isopropyl-4H-1,2,4-triazol-3-yl)pyridin-2-yl)-3-methoxy-1H-pyrazole-4-carboxamide], the IC50 in test [1] (class symbols) is at most 0.1 µM; in test [2], at most 1 µM.

As to `COc1nn(CC(C)C)cc1C(=O)Nc1cccc(-c2nncn2C(C)C(F)(F)F)n1` (centres unmarked) [Example 43, 1-Isobutyl-3-methoxy-N-(6-(4-(1,1,1-trifluoropropan-2-yl)-4H-1,2,4-triazol-3-yl)pyridin-2-yl)-1H-pyrazole-4-carboxamide], the IC50 was at most 0.1 µM in test [1] (class symbols) and at most 1 µM in test [2].

In the case of `COc1nn(Cc2ccccn2)cc1C(=O)Nc1cccc(-c2nncn2C(C)C)n1` [Example 44, N-(6-(4-Isopropyl-4H-1,2,4-triazol-3-yl)pyridin-2-yl)-3-methoxy-1-(pyridin-2-ylmethyl)-1H-pyrazole-4-carboxamide], the values for the 50% inhibitory concentration (IC50) in test [1] (class symbols) and in test [2] were at most 0.1 µM and at most 1 µM, respectively.

`COc1nn(CCN(C)C)cc1C(=O)Nc1cccc(-c2nncn2C(C)C)n1` [Example 45, 1-(2-(Dimethylamino)ethyl)-N-(6-(4-isopropyl-4H-1,2,4-triazol-3-yl)pyridin-2-yl)-3-methoxy-1H-pyrazole-4-carboxamide]: the IC50 in test [1] (class symbols) was at most 0.1 µM; in test [2] it was at most 1 µM.

As to `COc1nn(CCN2CCOCC2)cc1C(=O)Nc1cccc(-c2nncn2C(C)C)n1` [Example 46, N-(6-(4-Isopropyl-4H-1,2,4-triazol-3-yl)pyridin-2-yl)-3-methoxy-1-(2-morpholinoethyl)-1H-pyrazole-4-carboxamide], the IC50 in test [1] (class symbols) was at most 0.1 µM; in test [2], at most 1 µM.

Regarding `COc1nn(CC2CC2)cc1C(=O)Nc1cccc(-c2nncn2[C@@H](C)C(F)(F)F)n1` [Example 48, (S)-1-(Cyclopropylmethyl)-3-methoxy-N-(6-(4-(1,1,1-trifluoropropan-2-yl)-4H-1,2,4-triazol-3-yl)pyridin-2-yl)-1H-pyrazole-4-carboxamide], the half-inhibitory concentration (IC50) was at most 0.1 µM in test [1] (class symbols) and at most 1 µM in test [2].

Turning to `COc1nn(C)cc1C(=O)Nc1cccc(-c2nncn2C2(C)COC2)n1` [Example 49, 3-Methoxy-1-methyl-N-(6-(4-(3-methyloxetan-3-yl)-4H-1,2,4-triazol-3-yl)pyridin-2-yl)-1H-pyrazole-4-carboxamide], the IC50 in test [1] (class given in words) is at least 10 µM; in test [2], over 10 µM.

`CC(C)n1cnnc1-c1cccc(NC(=O)c2cn(CC3CC3)nc2C(F)F)n1` [Example 50, 1-(Cyclopropylmethyl)-3-(difluoromethyl)-N-(6-(4-isopropyl-4H-1,2,4-triazol-3-yl)pyridin-2-yl)-1H-pyrazole-4-carboxamide]: the IC50 in test [1] (class symbols) was at most 0.1 µM; in test [2], at most 1 µM.

`COCCn1cc(C(=O)Nc2cccc(-c3nncn3[C@@H](C)C(F)(F)F)n2)c(C(F)F)n1` [Example 51, (S)-3-(Difluoromethyl)-1-(2-methoxyethyl)-N-(6-(4-(1,1,1-trifluoropropan-2-yl)-4H-1,2,4-triazol-3-yl)pyridin-2-yl)-1H-pyrazole-4-carboxamide]: the values for the IC50 in test [1] (class symbols) and in test [2] were at most 0.1 µM and at most 1 µM, respectively.
